Results published in BindingDB's records for doi:10.1016/j.ejmech.2018.06.047 (University of Oulu, 2018).

Test: Inhibition of ARTD10 (unknown origin)-induced cell death expressed in human HeLa cells after 10 days by methylene blue staining based colony formation assay

Row | Structure (SMILES) | IC50 [nM]
1 | NC(=O)c1ccc(OCc2ccccc2F)cc1 | 2000
2 | NC(=O)c1ccc(Oc2ccc(C=O)cc2)cc1 | 1000
